In data set [1] the test system is KB-A1 (multi-drug resistant line induced by adriamycin). Briefly: In vitro cytotoxicity, Microculture Tetrazolium Assay, KB-A1 (adriamycin-resistant). Type of data set: cell-based. Conditions: Homo sapiens. As to the method: (§1) A/In Vitro Activity: Cytotoxicity
(§2) Four cell lines were used:
the corresponding resistant line, KB-A1, the multi-drug resistance of which was induced by adriamycin (ADR).
(§3) The cells are distributed onto microplates and exposed to the cytotoxic compounds. The cells are then incubated for 2 days (P388) or 4 days (LLC, KB-A1, KB-3-1).

The test system of data set [2] is human epidermoid carcinoma, KB-3-1. Briefly: In vitro cytotoxicity, Microculture Tetrazolium Assay, KB-3-1. Type of data set: cell-based. As to the method: as §1, §2, §3
Data set [3] relates to murine lung carcinoma, Lewis Lung Carcinoma (LLC). Briefly: In vitro cytotoxicity, Microculture Tetrazolium Assay, LLC. Type of data set: cell-based. Conditions: Mus musculus, 96 h. As to the method: as §1, §2
1 murine lung carcinoma, Lewis Lung Carcinoma (LLC),
as §3

Data set [4] has as its system murine leukaemia P388. Kind of data set: In vitro cytotoxicity, Microculture Tetrazolium Assay, P388. Type of data set: cell-based. Conditions: Mus musculus. As for the experimental part: as §1, §2, §3
Data set [5] has as its system human lung carcinoma NCI-H460. Kind of data set: Anti-tumour activity in an orthotopic model of human lung carcinoma NCI-H460 implanted intrapleurally. Type of data set: in vivo, human (tumour line, in female Nude Balb/C mice). Conditions: for toxicity of the dose: dihydrochloride. As for the experimental part:
2/Anti-tumour Activity of the Compounds in an Orthotopic Model of Human Lung Carcinoma NCI-H460 Implanted Intrapleurally
The line NCI-H460, which originates from a human lung carcinoma of "not small cell" type, was supplied by the American Type Culture Collection (Frederick, USA). The cells are cultured in vitro in complete RPMI 1640 medium in Falcon flasks. On the day of the implantation, the cells are separated using trypsin, centrifuged and suspended in complete culture medium. The cells are then implanted in the pleural cavity of female Nude Balb/C mice (10^6 cells per mouse). The products are administered i.v. to groups of 6 animals on days 7 and 14 at the doses indicated. The anti-tumour activity is expressed in % T/C as defined above.
Table 3 lists the results obtained with the compound of Example 3 of the present Application (especially representative of the invention) and with the closest compound of the prior art as reference product.

In data set [6] the test system is leukaemia P388. Kind of data set: Anti-tumour activity on leukaemia P388 (i.p.) in female BDF1 mice. Type of data set: in vivo, murine (female BDF1 mice). As to the method: 1/Anti-tumour Activity of the Compounds on Leukaemia P388
The line P388 (murine leukaemia) was supplied by the National Cancer Institute (Frederick, USA). The tumour cells (10^6 cells) were injected on day 0 into the peritoneal cavity of female BDF1 mice (Iffa-Credo, France) weighing from 18 to 20 g (groups of 6 or 7 animals).
The products were administered intravenously, at the doses indicated, on day 1 or on days 1, 5 and 9.
The anti-tumour activity is expressed in % T/C: [formula]
The number of animals surviving 60 days (long-term survival) is indicated.
By way of example, Table 2 gives the results obtained with the compound of Example 32 which is especially representative of the invention.

The mark [7] stands for this setting: 96 h, KB-A1, 4 days incubation, read-out: IC50.
Where [8] appears, read: 96 h, KB-3-1, 4 days incubation, read-out: IC50.
Where [9] appears, read: LLC, 4 days incubation, read-out: IC50.
Where [10] appears, read: 48 h, P388, 2 days incubation, read-out: IC50.
The mark [11] stands for this setting: i.v. on days 7 and 14, 56.5 mg/kg.
The mark [12] stands for this setting: i.v. on days 7 and 14, 80 mg/kg.
Where [13] appears, read: i.v. on days 7 and 14, 113 mg/kg.

Structures can show the parent of a compound that is named as a salt. Where two headings read alike, the source gives them in different places.

For `COc1cccc2c1C(=O)c1c(O)c3c(c(O)c1C2=O)C[C@@](O)(C(=O)CO)C[C@@H]3O[C@H]1C[C@H](N)[C@H](O)[C@H](C)O1` [ADR, adriamycin, reference compound], the IC50 is 6690 nM in data set [1] (KB-A1, 96 h); 17.3 nM in data set [2] (KB 3-1, 96 h); 19.3 nM in data set [3]; 18.1 nM in data set [4] (P388, 48 h).

As to `CC(=O)Oc1ccc2c(c1)c1cc3c(C(=O)NCCN(C)C)nccc3c(C)c1n2C` [Example 2, 1-[(2-Dimethylaminoethyl)aminocarbonyl]-5,6-dimethyl-9-acetoxy-6H-pyrido-[4,3-b]carbazole], the IC50 in data set [1] (setting [7]) was 758 nM; in data set [2] (setting [8]), 36.1 nM; in data set [3] (setting [9]) it was 13.5 nM; in data set [4] (setting [10]) it was 5.8 nM.

`Cc1c2ccnc(C(=O)NCCN(C)C)c2cc2c3cc(OC(=O)CCCC(=O)O)ccc3n(C)c12.Cl.Cl` [Example 3, 1-[(2-Dimethylaminoethyl)aminocarbonyl]-5,6-dimethyl-9-(4-carboxybutanoyloxy)-6H-pyrido-[4,3-b]carbazole dihydrochloride]: the IC50 came to 923 nM in data set [1] (setting [7]), 74.2 nM in data set [2] (setting [8]), 43.2 nM in data set [3] (setting [9]) and 7.1 nM in data set [4] (setting [10]). In data set [5] (administered twice at 160 mg/kg i.v.), the “increase in survival of the animals” value is 81%. Also, in data set [5] (even at a strong dose, i.v.), the tolerability entry is “very well tolerated”. Also, the therapeutic index result in data set [5] (i.v.) is reported as “excellent”. Moreover, in data set [5] (i.v. on days 7 and 14), the anti-tumour activity entry was “active”. The T/C % worked out at 133% in data set [5] (setting [11]); 147% in data set [5] (setting [12]); 174% in data set [5] (setting [13]); 181% in data set [5] (i.v. on days 7 and 14, 160 mg/kg).

In the case of `Cc1c2ccnc(C(=O)NCCN(C)C)c2cc2c3cc(OC(=O)CCCCC(=O)O)ccc3n(C)c12` [Example 32, 1-[(2-Dimethylaminoethyl)aminocarbonyl]-5,6-dimethyl-9-(5-carboxypentanoyloxy)-6H-pyrido[4,3-b]carbazole], in data set [6] (even at a very high dose, i.v.), the tolerability result is “well tolerated”. The “weight loss and premature death” value in data set [6] (even at a very high dose, i.v.) is “neither significant weight loss nor premature death”. Also, in data set [6] (i.v.), the general toxicity entry is “very low general toxicity”. Besides, the therapeutic index entry in data set [6] (i.v.) is reported as “excellent therapeutic index”. Besides, the T/C % is 125% in data set [6] (i.v. on D1, 20 mg/kg); 154% in data set [6] (i.v. on D1, 40 mg/kg); 186% in data set [6] (i.v. on D1, 80 mg/kg); 233% in data set [6] (i.v. on D1, 160 mg/kg); more than 600% in data set [6] (i.v. on D1, 240 mg/kg); more than 600% in data set [6] (i.v. on D1, 320 mg/kg). Moreover, the T/C % is 137% in data set [6] (i.v. on D1, 5 and 9, 10 mg/kg); 171% in data set [6] (i.v. on D1, 5 and 9, 20 mg/kg); 236% in data set [6] (i.v. on D1, 5 and 9, 40 mg/kg); more than 600% in data set [6] (i.v. on D1, 5 and 9, 80 mg/kg); more than 600% in data set [6] (i.v. on D1, 5 and 9, 160 mg/kg). Moreover, the “number of animals surviving 60 days (cured)” value was 4/7 in data set [6] (i.v. on D1, 240 mg/kg); 6/7 in data set [6] (i.v. on D1, 320 mg/kg); 6/7 in data set [6] (i.v. on D1, 5 and 9, 80 mg/kg); 6/7 in data set [6] (i.v. on D1, 5 and 9, 160 mg/kg). The concentration for half-maximal inhibition (IC50) came out at 758 nM in data set [1] (setting [7]), 40.6 nM in data set [2] (setting [8]), 3.5 nM in data set [3] (setting [9]) and 5.1 nM in data set [4] (setting [10]).

Turning to `Cc1c2ccnc(C(=O)NCCN(C)C)c2cc2c3cc(O)ccc3n(C)c12` [Reference product, 1[(2dimethylaminoethyl)aminocarbonyl5,6-dimethyl-9-hydroxy-6H-pyrido-[4,3]carbazoledihydrochloride, reference compound], the “mouse dead during the treatments” value in data set [5] (113 mg/kg i.v., days 7 and 14) amounted to 1 mouse. In addition, the “toxicity of the dose” value in data set [5] (113 mg/kg i.v., days 7 and 14) is “toxic dose”; in data set [5] (113 mg/kg i.v., days 7 and 14, listed as reference product), “toxic”. Further, the T/C % in data set [5] (i.v. on days 7 and 14, 40 mg/kg) is 126%; in data set [5] (setting [11]), 145%; in data set [5] (setting [12]) it was 156%; in data set [5] (setting [13]) it was 186%.

By IC50 is commonly meant the concentration at which inhibition is half-maximal.

(Values after US6162811A, “Ellipticine compounds” (Adir et Compagnie, priority 1996, dated 2000).)
